In article PMC9249104 (Nature chemical biology, 2021):
Entries after “also recorded” stand apart in the source; their conditions may differ. Like-named read-outs stand apart in the source and are kept apart here.

How the values were obtained:
[1] = biological target: PIK3CD (Homo sapiens, UniProt O00329); experiment: KiNativ kinome screen in Ramos cells: PIK3CD; conditions: read-out: inhibition of PIK3CD
[2] = test system: 4EBP1/2 WT and 4EBP1/2 DKO MEFs; experiment: Cell growth of E1A/Ras-transformed 4EBP1/2 WT and DKO MEFs; format: cell-based, mouse; conditions: 72 hours
[3] = test system: 4EBP1 T37/T46 phosphorylation (mTORC1); experiment: AlphaLISA/MSD p4EBP1 T37/T46 in MDA-MB-468 cells; format: cell-based
[4] = Two-day glucose tolerance test; format: in vivo; conditions: mice, one hour after inhibitor administration
[5] = test system: mTORC1 signaling (p4EBP1 T37/T46); experiment: p4EBP1 T37/T46 in parental and FKBP12 knockout NCI-H358 cells; format: cell-based
[6] = test system: AKT S473 phosphorylation (mTORC2); experiment: AlphaLISA/MSD pAKT S473 in MDA-MB-468 cells; format: cell-based
[7] = MCF-7 subcutaneous xenograft: body weight; conditions: MCF-7 xenograft mice; bi-steric inhibitors ip once weekly, MLN0128 po daily
[8] = test system: MCF-7 cells; experiment: Cell viability; format: cell-based; conditions: MCF-7, 72 hours
[9] = test system: p4EBP1 T37/T46; experiment: FK506 competition, p4EBP1 T37/T46 in MDA-MB-468 cells; format: cell-based
[10] = test system: kinases other than mTOR; experiment: KiNativ kinome screen in Ramos cells: kinases other than mTOR; conditions: 1 µM
[11] = test system: pAKT S473; experiment: Immunoblot of MCF-7 cells overexpressing Myr-AKT or vector control; format: cell-based; conditions: 4 hours; for effect on pAKT S473 in Myr-AKT cells: MCF-7 Myr-AKT cells, BiS-31x up to 100 nM; for effect on pAKT S473 in parental cells: MCF-7 parental cells
[12] = test system: S6K T389 phosphorylation (mTORC1); experiment: AlphaLISA pS6K T389 in MDA-MB-468 cells; format: cell-based
[13] = test system: mTOR FRB mutation (F2108L); experiment: Immunoblot of parental MCF-7 and MCF-7 cells harboring mTOR F2108L; format: cell-based; conditions: MCF-7, four hours
[14] = test system: mTORC1 over mTORC2; experiment: mTORC1/2 selectivity: potencies for inhibition of 4EBP1 T37/T46; format: cell-based; conditions: MDA-MB-468; p4EBP1 T37/T46 vs pAKT S473 potencies
[15] = test system: pAKT S473; experiment: Immunoblot of MCF-7 and BT474 cells: pAKT S473; format: cell-based; conditions: 10 nM, by 4 hours
[16] = test system: mTORC1; conditions: cited from earlier work
[17] = test system: MDA-MB-468 sgGFP and sg4EBP1 cells; experiment: Cell viability of MDA-MB-468 sgGFP and sg4EBP1 cells; format: cell-based; conditions: for concentration suppressing proliferation: five days
[18] = test system: eIF4F complex formation; experiment: In vitro cap-binding affinity assay, MDA-MB-468 sgGFP and sg4EBP1 cells; format: cell-based; conditions: 3 nM, 4 and 24 hours, MDA-MB-468 sgGFP cells
[19] = test system: HER3 expression and phosphorylation; experiment: Immunoblot of MCF-7 and BT474 cells: HER3; format: cell-based; conditions: 10 nM, by 24 hours
[20] = test system: global protein synthesis; experiment: Puromycin incorporation in MCF-7 cells; format: cell-based; conditions: MCF-7, 4 hours
[21] = test system: pS6K T389, pAKT S473, cyclin D1; experiment: Immunoblot of MDA-MB-468 and MCF-7 sgGFP and sg4EBP1 cells; format: cell-based; conditions: 4 hours
[22] = test system: AKT S473 phosphorylation; experiment: Immunoblot of PC3 cells, 4 or 24 hours; format: cell-based
[23] = mouse, in vivo
[24] = biological target: FKBP12 (Homo sapiens, UniProt P62942); experiment: TR-FRET competitive binding assay for FKBP12
Sequence of FKBP12 (P62942 whole entry): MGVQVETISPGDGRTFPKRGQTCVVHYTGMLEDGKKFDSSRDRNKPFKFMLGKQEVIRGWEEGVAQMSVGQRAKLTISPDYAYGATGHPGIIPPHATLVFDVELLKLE

Sequence of PIK3CD (O00329 whole entry): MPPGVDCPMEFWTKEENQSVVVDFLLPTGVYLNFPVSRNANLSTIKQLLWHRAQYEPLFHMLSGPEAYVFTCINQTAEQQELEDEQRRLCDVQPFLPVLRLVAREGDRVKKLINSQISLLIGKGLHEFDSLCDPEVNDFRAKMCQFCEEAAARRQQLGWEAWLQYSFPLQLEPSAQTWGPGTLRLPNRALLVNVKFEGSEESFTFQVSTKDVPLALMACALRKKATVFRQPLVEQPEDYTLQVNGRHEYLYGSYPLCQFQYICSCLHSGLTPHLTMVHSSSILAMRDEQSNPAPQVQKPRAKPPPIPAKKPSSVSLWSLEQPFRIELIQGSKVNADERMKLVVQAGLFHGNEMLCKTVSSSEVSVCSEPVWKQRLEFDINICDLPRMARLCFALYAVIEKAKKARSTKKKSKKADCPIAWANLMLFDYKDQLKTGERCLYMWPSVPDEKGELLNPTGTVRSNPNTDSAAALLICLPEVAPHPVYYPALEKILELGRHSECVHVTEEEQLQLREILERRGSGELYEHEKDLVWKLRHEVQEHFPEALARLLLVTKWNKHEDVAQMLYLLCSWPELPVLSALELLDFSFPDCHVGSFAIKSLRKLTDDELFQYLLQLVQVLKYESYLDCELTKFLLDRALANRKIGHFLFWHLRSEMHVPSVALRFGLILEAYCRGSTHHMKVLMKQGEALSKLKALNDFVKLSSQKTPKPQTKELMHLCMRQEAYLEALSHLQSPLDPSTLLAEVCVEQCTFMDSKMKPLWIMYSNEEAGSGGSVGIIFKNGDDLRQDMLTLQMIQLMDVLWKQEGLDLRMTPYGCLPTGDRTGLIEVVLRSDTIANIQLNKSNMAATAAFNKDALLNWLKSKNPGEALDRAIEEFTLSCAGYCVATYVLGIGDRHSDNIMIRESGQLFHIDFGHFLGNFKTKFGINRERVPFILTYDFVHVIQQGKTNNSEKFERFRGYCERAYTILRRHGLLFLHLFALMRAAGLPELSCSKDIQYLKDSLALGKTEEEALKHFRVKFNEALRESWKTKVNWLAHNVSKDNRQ
Sequence of PIK3CD (P27986 whole entry partner): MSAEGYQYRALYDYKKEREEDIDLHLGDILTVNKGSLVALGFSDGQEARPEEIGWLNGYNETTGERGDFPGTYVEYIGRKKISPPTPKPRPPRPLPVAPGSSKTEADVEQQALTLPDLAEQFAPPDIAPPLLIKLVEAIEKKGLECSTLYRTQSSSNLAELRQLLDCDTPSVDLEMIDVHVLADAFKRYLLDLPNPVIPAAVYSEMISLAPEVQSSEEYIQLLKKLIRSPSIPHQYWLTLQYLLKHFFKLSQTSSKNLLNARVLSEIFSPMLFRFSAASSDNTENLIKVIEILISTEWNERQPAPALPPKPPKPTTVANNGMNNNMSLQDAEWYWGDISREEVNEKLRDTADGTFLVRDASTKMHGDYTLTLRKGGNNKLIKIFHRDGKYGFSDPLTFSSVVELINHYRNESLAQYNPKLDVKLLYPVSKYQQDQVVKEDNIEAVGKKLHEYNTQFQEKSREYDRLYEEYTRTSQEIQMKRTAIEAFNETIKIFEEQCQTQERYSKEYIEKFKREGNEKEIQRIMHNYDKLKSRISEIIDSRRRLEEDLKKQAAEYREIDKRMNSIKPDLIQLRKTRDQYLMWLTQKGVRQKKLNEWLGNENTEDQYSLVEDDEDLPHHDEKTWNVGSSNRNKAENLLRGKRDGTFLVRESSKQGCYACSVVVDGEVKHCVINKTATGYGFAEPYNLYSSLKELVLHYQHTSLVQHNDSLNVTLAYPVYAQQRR

## CC(C)n1nc(-c2ccc3oc(N)nc3c2)c2c(N)ncnc21 [MLN0128]
[1]
  inhibition at 1 µM: 69%
[2]
  sensitivity to cell growth inhibition in 4EBP1/2 DKO MEFs compared to WT MEFs: a similar pattern was observed
[3]
  effect on p4EBP1 T37/T46: inhibited
[4]
  return of glucose levels to baseline after the first glucose challenge: delayed
[5]
  impact of FKBP12 knockout on inhibitory activity: Neither FKBP12 knockout nor addition of FK506 had an impact
[6]
  effect on pAKT S473: inhibited
[7]
  maximum loss in body weight: up to 15%
[8]
  GI50 relative to BiS-NS and BiS-13x (less potent): 10 fold
[9]
  impact of addition of FK506 on inhibitory activity: Neither FKBP12 knockout nor addition of FK506 had an impact

## CC(C)n1nc(-c2cc3cc(O)ccc3[nH]2)c2c(N)ncnc21 [PP242]
[3]
  effect on p4EBP1 T37/T46: inhibited
[6]
  effect on pAKT S473: inhibited

## CO[C@H]1C[C@@H]2CC[C@@H](C)[C@@](O)(O2)C(=O)C(=O)N2CCCC[C@H]2C(=O)O[C@H]([C@H](C)C[C@@H]2CC[C@@H](O)[C@H](OC)C2)C[C@@H](OC)[C@H](C)/C=C(\C)[C@@H](O)[C@@H](OC)/C(=N/OCc2cn(CCOCCOCCOCCOCCOCCOCCOCCOCCC(=O)NCCCCn3nc(-c4ccc5oc(N)nc5c4)c4c(N)ncnc43)nn2)[C@H](C)C[C@H](C)/C=C/C=C/C=C/1C [RMC-4529]
[10]
  interactions with kinases other than mTOR: No interactions
[3]; read-out: 4EBP1 T37/T46 IC50
  IC50: 6.37 nM
[11]
  effect on pAKT S473 in Myr-AKT cells: did not inhibit
  effect on pAKT S473 in parental cells: increase
[12]; read-out: S6K IC50
  IC50: 0.98 nM
[7]
  maximum loss in body weight: 5%
[13]
  reduction in potency in cells with mTOR FRB mutation (F2108L): 10 fold
[8]
  GI50 relative to BiS-NS and BiS-13x (less potent): 10 fold
[14]
  selectivity for mTORC1 over mTORC2: 31 fold

## CO[C@@H]1C[C@@H]2CC[C@@H](C)[C@@](O)(O2)C(=O)C(=O)N2CCCC[C@@H]2C(=O)O[C@H]([C@H](C)C[C@H]2CC[C@H](OCCOCc3cn(CCOCCOCCOCCOCCOCCOCCOCCOCCC(=O)NCCCCn4nc(-c5ccc6oc(N)nc6c5)c5c(N)ncnc54)nn3)[C@H](OC)C2)CC(=O)[C@H](C)/C=C(\C)[C@H](O)[C@@H](OC)C(=O)[C@H](C)C[C@H](C)/C=C/C=C/C=C/1C [RapaLink-1]
[3]
  effect on p4EBP1 T37/T46: equipotent
[15]
  effect on pAKT S473: abolished
[11]
  effect on pAKT S473 in Myr-AKT cells: inhibited
  effect on pAKT S473 in parental cells: inhibited
[16]
  selectivity for mTORC1: three- to four
[12]
  effect on pS6K T389: equipotent
[17]; MDA-MB-468, five days
  sensitivity of sg4EBP1 cells compared to sgGFP cells (less sensitive): three
[17]; MDA-MB-468 sg4EBP1 cells
  concentration suppressing proliferation: 0.3 nM
[17]; MDA-MB-468 sgGFP cells
  concentration suppressing proliferation: 0.1 nM
[18]
  displacement of eIF4G by 4EBP1 in the cap-binding complexes: significant displacement
[19]
  effect on HER3 expression and phosphorylation: increased
[20]
  effect on global protein synthesis: suppressed
[21]; control (sgGFP) and sg4EBP1 cells
  effect on pS6K T389 and pAKT S473: suppressed pS6K T389 and pAKT S473 effectively and equivalently
[21]; sg4EBP1 cells
  effect on cyclin D1 levels: unaffected
[21]; sgGFP cells
  effect on cyclin D1 levels: reduced
[14]
  selectivity for mTORC1 over mTORC2: three- to four; also recorded: approximately four

## CO[C@H]1C[C@@H]2CC[C@@H](C)[C@@](O)(O2)C(=O)C(=O)N2CCCC[C@H]2C(=O)O[C@H]([C@H](C)C[C@@H]2CC[C@@H](O)[C@H](OC)C2)CC(=O)[C@H](C)/C=C(\C)[C@@H](O)[C@@H](OC)C(=O)[C@H](C)C[C@H](C)/C=C/C=C/C=C/1C [Rapamycin]
[22]
  effect on AKT S473 phosphorylation: significant inhibition
[12]
  effect on pS6K T389: inhibited
[6]
  effect on pAKT S473: increased

## RMC-4627
[3]
  effect on p4EBP1 T37/T46: equipotent
[12]
  effect on pS6K T389: equipotent
[23]
  maximum loss in body weight: 10%
[24]
  affinity for FKBP12 relative to rapamycin (lower): approximately 3 fold
[14]
  selectivity for mTORC1 over mTORC2: 13 fold
